Where a name gives a salt, the structure may show the parent alone.

In the assay the target is T1, human GCN2 full-length protein (Homo sapiens, UniProt Q9P2K8).
T1 construct: purchased Carna Biosciences, Inc
T1 sequence (Q9P2K8 whole entry): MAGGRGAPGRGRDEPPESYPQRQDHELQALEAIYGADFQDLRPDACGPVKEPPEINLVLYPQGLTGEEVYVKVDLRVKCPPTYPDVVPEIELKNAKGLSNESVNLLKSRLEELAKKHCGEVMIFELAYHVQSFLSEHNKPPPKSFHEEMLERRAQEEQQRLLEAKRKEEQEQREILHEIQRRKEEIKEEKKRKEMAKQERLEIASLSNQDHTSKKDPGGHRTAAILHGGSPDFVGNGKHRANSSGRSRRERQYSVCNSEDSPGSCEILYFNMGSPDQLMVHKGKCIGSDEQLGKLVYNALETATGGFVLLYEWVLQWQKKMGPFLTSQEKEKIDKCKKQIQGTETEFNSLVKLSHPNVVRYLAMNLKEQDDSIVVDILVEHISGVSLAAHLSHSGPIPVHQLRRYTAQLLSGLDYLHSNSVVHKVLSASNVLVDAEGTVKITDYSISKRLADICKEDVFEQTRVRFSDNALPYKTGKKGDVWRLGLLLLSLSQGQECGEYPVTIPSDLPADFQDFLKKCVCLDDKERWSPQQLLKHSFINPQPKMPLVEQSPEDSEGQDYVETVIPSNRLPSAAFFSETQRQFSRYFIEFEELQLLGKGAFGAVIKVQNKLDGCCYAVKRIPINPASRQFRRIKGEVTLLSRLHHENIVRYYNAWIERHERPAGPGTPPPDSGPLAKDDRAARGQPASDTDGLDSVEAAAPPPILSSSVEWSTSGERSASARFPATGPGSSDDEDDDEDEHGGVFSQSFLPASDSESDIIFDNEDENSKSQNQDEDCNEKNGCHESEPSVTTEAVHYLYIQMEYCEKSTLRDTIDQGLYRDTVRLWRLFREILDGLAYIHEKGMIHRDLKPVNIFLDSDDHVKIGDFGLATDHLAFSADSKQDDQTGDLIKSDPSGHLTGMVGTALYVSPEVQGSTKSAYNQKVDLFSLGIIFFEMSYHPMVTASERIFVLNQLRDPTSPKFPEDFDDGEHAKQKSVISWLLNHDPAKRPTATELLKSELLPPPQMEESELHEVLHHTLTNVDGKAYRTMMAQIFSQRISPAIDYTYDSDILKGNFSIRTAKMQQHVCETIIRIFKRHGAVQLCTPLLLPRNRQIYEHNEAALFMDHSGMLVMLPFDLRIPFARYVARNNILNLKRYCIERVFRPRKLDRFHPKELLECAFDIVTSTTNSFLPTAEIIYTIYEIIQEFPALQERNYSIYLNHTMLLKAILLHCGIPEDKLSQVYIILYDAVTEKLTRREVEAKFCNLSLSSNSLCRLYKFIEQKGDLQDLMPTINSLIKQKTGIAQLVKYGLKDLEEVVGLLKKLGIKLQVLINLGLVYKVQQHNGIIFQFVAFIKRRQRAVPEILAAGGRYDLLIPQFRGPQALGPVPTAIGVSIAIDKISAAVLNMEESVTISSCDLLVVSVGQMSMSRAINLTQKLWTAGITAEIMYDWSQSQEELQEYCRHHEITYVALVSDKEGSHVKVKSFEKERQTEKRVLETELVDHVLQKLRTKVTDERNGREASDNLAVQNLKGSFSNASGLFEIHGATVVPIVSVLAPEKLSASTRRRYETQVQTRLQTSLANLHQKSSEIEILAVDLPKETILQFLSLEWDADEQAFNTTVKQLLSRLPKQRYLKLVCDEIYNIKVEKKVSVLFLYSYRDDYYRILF
Kind of assay: GCN2 enzyme inhibition assay (LanthaScreen TR-FRET). In kind it is biochemical. Conditions: GCN2 enzyme inhibitory activity at compound concentration of 3 μM; Table 3-1; read-out: inhibitory rate. The protocol: GCN2 enzyme was preserved at -70° C. and used. The GCN2 enzyme inhibitory activity of the test compound was measured by the LanthaScreenTR-FRET (Time Resolved Fluorescence Resonance Energy Transfer) method (manufactured by ThermoFisher). […] Then, GCN2 enzyme solution diluted with the assay buffer was added by 2 μL to each well. The enzyme solution was not added to a part of the wells to give a control group. After incubation at room temperature for 1 hr, 570 μM ATP solution containing 390 nM […] physiological protein substrate (ThermoFisher) was added by 2 μL. After reaction at room temperature for 1 hr, TR-FRET Dilution Buffer (ThermoFisher) containing 4 nM Terbium-labeled anti-elF2alpha [[…]] antibody (ThermoFisher) dissolved therein was added by 2 μL to each well. After standing at room temperature for 1 hr, time decomposition fluorescence measurement was performed on platereader Envision (manufactured by PerkinElmer).
For orientation: Time-resolved FRET reads energy transfer from a long-lived donor to a nearby acceptor.
Take `Cc1ncc(Cl)cc1S(=O)(=O)Nc1ccc(F)c(C#Cc2cnc(N)nc2)c1F` [Example 3, N-(3-((2-aminopyrimidin-5-yl)ethynyl)-2,4-difluorophenyl)-5-chloro-2-methylpyridine-3-sulfonamide]: the inhibition at 3 µM was 99%.

For the compound `Nc1ncc(C#Cc2c(F)ccc(NS(=O)(=O)c3cc(Cl)ccc3C(F)(F)F)c2F)cn1` [Example 6, N-(3-((2-aminopyrimidin-5-yl)ethynyl)-2,4-difluorophenyl)-5-chloro-2-(trifluoromethyl)benzenesulfonamide], the inhibition at 3 µM worked out at 99%.

In the case of `Nc1ncc(C#Cc2c(F)ccc(NS(=O)(=O)c3cc(Cl)cc4c3OCC4)c2F)cn1` [Example 9, N-(3-((2-aminopyrimidin-5-yl)ethynyl)-2,4-difluorophenyl)-5-chloro-2,3-dihydro-1-benzofuran-7-sulfonamide], the inhibition at 3 µM stood at 99%.

In the case of `O=S(=O)(Nc1ccc(F)c(C#Cc2cnc(NC3CC3)nc2)c1F)c1cc(Cl)ccc1Cl` [Example 11, 2,5-dichloro-N-(3-((2-(cyclopropylamino)pyrimidin-5-yl)ethynyl)-2,4-difluorophenyl)benzenesulfonamide TFA Salt], the inhibition at 3 µM turned out to be 99%.

With `Nc1ncc(C#Cc2c(F)ccc(NS(=O)(=O)c3cc(Cl)ccc3OC(F)(F)F)c2F)cn1` [Example 12, N-(3-((2-aminopyrimidin-5-yl)ethynyl)-2,4-difluorophenyl)-5-chloro-2-(trifluoromethoxy)benzenesulfonamide], the inhibition at 3 µM is 99%.

Regarding `O=S(=O)(Nc1ccc(F)c(C#Cc2cnc(NC3CCOC3)nc2)c1F)c1cc(Cl)ccc1Cl` (centres unmarked) [Example 16, 2,5-dichloro-N-(2,4-difluoro-3-((2-(tetrahydrofuran-3-ylamino)pyrimidin-5-yl)ethynyl)phenyl)benzenesulfonamide TFA Salt], the inhibition at 3 µM was 100%.

`Nc1ncc(C#Cc2c(F)ccc(NS(=O)(=O)c3cc(Cl)ccc3OC(F)F)c2F)cn1` [Example 21, N-(3-((2-aminopyrimidin-5-yl)ethynyl)-2,4-difluorophenyl)-5-chloro-2-(difluoromethoxy)benzenesulfonamide]: the inhibition at 3 µM was 99%.

On to `C[C@H](CO)Nc1ncc(C#Cc2c(F)ccc(NS(=O)(=O)c3cc(Cl)ccc3Cl)c2F)cn1` [Example 22, 2,5-dichloro-N-(2,4-difluoro-3-((2-(((2R)-1-hydroxypropan-2-yl)amino)pyrimidin-5-yl)ethynyl)phenyl)benzenesulfonamide TFA Salt], for which the inhibition at 3 µM stood at 99%.

As to `Nc1ncc(C#Cc2c(F)ccc(NS(=O)(=O)c3cc(Cl)cc(Cl)c3)c2F)cn1` [Example 27, N-(3-((2-aminopyrimidin-5-yl)ethynyl)-2,4-difluorophenyl)-3,5-dichlorobenzenesulfonamide], the inhibition at 3 µM is 95%.

For `O=S(=O)(Nc1ccc(F)c(C#Cc2cnc(NCCCO)nc2)c1F)c1cc(Cl)ccc1Cl` [Example 28, 2,5-dichloro-N-(2,4-difluoro-3-((2-((3-hydroxypropyl)amino)pyrimidin-5-yl)ethynyl)phenyl)benzenesulfonamide TFA Salt], the inhibition at 3 µM stood at 99%.

As for `N#Cc1ccc(Cl)cc1S(=O)(=O)Nc1ccc(F)c(C#Cc2cnc(N)nc2)c1F` [Example 29, N-(3-((2-aminopyrimidin-5-yl)ethynyl)-2,4-difluorophenyl)-5-chloro-2-cyanobenzenesulfonamide], the inhibition at 3 µM was determined as 99%.

`CCNc1ncc(C#Cc2c(F)ccc(NS(=O)(=O)c3cc(Cl)ccc3Cl)c2F)cn1` [Example 30, 2,5-dichloro-N-(3-((2-(ethylamino)pyrimidin-5-yl)ethynyl)-2,4-difluorophenyl)benzenesulfonamide TFA Salt]: the inhibition at 3 µM came to 98%.

On to `O=S(=O)(Nc1ccc(F)c(C#Cc2cnc(N[C@H]3CC[C@H](O)CC3)nc2)c1F)c1cc(Cl)ccc1Cl` [Example 32, 2,5-dichloro-N-(2,4-difluoro-3-((2-((trans-4-hydroxycyclohexyl)amino)pyrimidin-5-yl)ethynyl)phenyl)benzenesulfonamide TFA Salt], for which the inhibition at 3 µM stood at 99%.

Regarding `Nc1ncc(C#Cc2c(F)ccc(NS(=O)(=O)c3cc(Cl)ccc3Cl)c2F)c(N)n1` [Example 34, 2,5-dichloro-N-(3-((2,4-diaminopyrimidin-5-yl)ethynyl)-2,4-difluorophenyl)benzenesulfonamide], the inhibition at 3 µM was 98%.

Take `Nc1ncc(C#Cc2c(F)ccc(NS(=O)(=O)c3cc(C(F)(F)F)ccc3Cl)c2F)cn1` [Example 35, N-(3-((2-aminopyrimidin-5-yl)ethynyl)-2,4-difluorophenyl)-2-chloro-5-(trifluoromethyl)benzenesulfonamide]: the inhibition at 3 µM amounted to 95%.

With `O=S(=O)(Nc1ccc(F)c(C#Cc2cnc(NCCO)nc2)c1F)c1cc(Cl)ccc1Cl` [Example 36, 2,5-dichloro-N-(2,4-difluoro-3-((2-((2-hydroxyethyl)amino)pyrimidin-5-yl)ethynyl)phenyl)benzenesulfonamide TFA Salt], the inhibition at 3 µM came to 99%.

In the case of `Cc1ncc(Cl)cc1S(=O)(=O)Nc1ccc(F)c(C#Cc2cnc(NC(C)C)nc2)c1F` [Example 105, 5-chloro-N-(2,4-difluoro-3-((2-(isopropylamino)pyrimidin-5-yl)ethynyl)phenyl)-2-methylpyridine-3-sulfonamide], the inhibition at 3 µM came out at 100%.

As to `COc1ncc(Cl)cc1S(=O)(=O)Nc1ccc(F)c(C#Cc2cnc(NC(C)C)nc2)c1F` [Example 106, 5-chloro-N-(2,4-difluoro-3-((2-(isopropylamino)pyrimidin-5-yl)ethynyl)phenyl)-2-methoxypyridine-3-sulfonamide], the inhibition at 3 µM worked out at 99%.

For `COc1ncc(Cl)cc1S(=O)(=O)Nc1ccc(F)c(C#Cc2cnc(NCC(C)(C)O)nc2)c1F` [Example 107, 5-chloro-N-(2,4-difluoro-3-((2-((2-hydroxy-2-methylpropyl)amino)pyrimidin-5-yl)ethynyl)phenyl)-2-methoxypyridine-3-sulfonamide], the inhibition at 3 µM stood at 99%.

For `COc1ncc(Cl)cc1S(=O)(=O)Nc1ccc(F)c(C#Cc2cnc(NC(C)(C)CO)nc2)c1F` [Example 108, 5-chloro-N-(2,4-difluoro-3-((2-((1-hydroxy-2-methylpropan-2-yl)amino)pyrimidin-5-yl)ethynyl)phenyl)-2-methoxypyridine-3-sulfonamide], the inhibition at 3 µM was found to be 99%.

`COc1ncc(Cl)cc1S(=O)(=O)Nc1ccc(F)c(C#Cc2cnc(N)nn2)c1F` [Example 109, N-(3-((3-amino-1,2,4-triazin-6-yl)ethynyl)-2,4-difluorophenyl)-5-chloro-2-methoxypyridine-3-sulfonamide]: the inhibition at 3 µM was 99%.

On to `COc1ncc(Cl)cc1S(=O)(=O)Nc1ccc(F)c(C#Cc2cnc(N)c(C)n2)c1F` [Example 110, N-(3-((5-amino-6-methylpyrazin-2-yl)ethynyl)-2,4-difluorophenyl)-5-chloro-2-methoxypyridine-3-sulfonamide], for which the inhibition at 3 µM was found to be 100%.

For `Cc1cc(C)cc(S(=O)(=O)Nc2ccc(F)c(C#Cc3cnc4[nH]ncc4c3)c2F)c1` [Example 111, N-(2,4-difluoro-3-(1H-pyrazolo[3,4-b]pyridin-5-ylethynyl)phenyl)-3,5-dimethylbenzenesulfonamide TFA Salt], the inhibition at 3 µM came out at 97%.

The values above are taken from patent publication US10696651B2, “Heterocyclic compound” (Takeda Pharmaceutical Company Limited, priority 2016, dated 2020).
